The supplement of paper PMC10307832

Key:
Assay in all cases: relative viability (nuclei count vs DMSO), 5 days (fraction); higher = more cells survive
[1] = compound: C#Cc1cccc(Nc2ncnc3cc(OC)c(OCCCCCCC(=O)NO)cc23)c1 [CUDC-101] + C[C@]1(O)C[C@@H](c2nc(-c3ccc4ccc(-c5ccccc5)nc4c3)c3c(N)nccn32)C1 [Linsitinib] (partner 1 µM)
In short: (§1)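 The day after seeding in 1536-well plates, lung cancer cell lines were treated by pin tool with a single drug, or with a fixed anchor-drug dose together with five library-drug doses (not always all listed) in √10 steps. After 5 days, a combined fix-and-stain solution (final 0.05% Triton X-100, 1% formaldehyde, 1 ug/ml Hoechst) was added. Nuclei counted on 4× images gave relative viability as treated counts over vehicle counts, reported as the median of duplicate plates.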

[2] = compound: C1=CC=C2C(=C1)N=C(S2)C(C#N)C3=NC(=NC=C3)NCCC4=CN=CC=C4 + Cc1cc(Nc2cc(N3CCN(C)CC3)nc(Sc3ccc(NC(=O)C4CC4)cc3)n2)n[nH]1 [Tozasertib] (partner 0.1 µM)
In short: as §1

[3] = compound: C#Cc1cccc(Nc2ncnc3cc(OC)c(OCCCCCCC(=O)NO)cc23)c1 [CUDC-101] + N=C(N)NC(=N)NCCc1ccccc1 [Phenformin] (partner 250 µM)
In short: as §1

[4] = compound: C#Cc1cccc(Nc2ncnc3cc(OC)c(OCCCCCCC(=O)NO)cc23)c1 [CUDC-101] + CC1(C)CCC(c2ccc(Cl)cc2)=C(CN2CCN(c3ccc(C(=O)NS(=O)(=O)c4ccc(N[C@H](CCN5CCOCC5)CSc5ccccc5)c(S(=O)(=O)C(F)(F)F)c4)cc3)CC2)C1 [Navitoclax] (partner 0.5 µM)
In short: as §1

| Cell Line | relative viability ([1]; first compound 0.01 µM) | relative viability ([1]; first compound 0.03162 µM) | relative viability ([1]; first compound 0.1 µM) | relative viability ([1]; first compound 0.3162 µM) | relative viability ([1]; first compound 1 µM) | relative viability ([2]; first compound 0.005 µM) | relative viability ([2]; first compound 0.01581 µM) | relative viability ([2]; first compound 0.05 µM) | relative viability ([2]; first compound 0.1581 µM) | relative viability ([2]; first compound 0.5 µM) | relative viability ([3]; first compound 0.01 µM) | relative viability ([3]; first compound 0.03162 µM) | relative viability ([3]; first compound 0.1 µM) | relative viability ([3]; first compound 0.3162 µM) | relative viability ([3]; first compound 1 µM) | relative viability ([4]; first compound 0.01 µM) | relative viability ([4]; first compound 0.03162 µM) | relative viability ([4]; first compound 0.1 µM) | relative viability ([4]; first compound 0.3162 µM) | relative viability ([4]; first compound 1 µM) |
| --- | --- | --- | --- | --- | --- | --- | --- | --- | --- | --- | --- | --- | --- | --- | --- | --- | --- | --- | --- | --- |
| NCI-H2405 | 1.03 | 0.702 | 0.981 | 1.14 | 0.851 | 0.714 | 0.72 | 0.672 | 0.701 | 0.616 | 0.392 | 0.37 | 0.442 | 0.397 | 0.352 | 1.12 | 0.842 | 0.953 | 1.17 | 0.665 |
| NCI-H2087 | 0.916 | 0.87 | 1.01 | 0.882 | 0.812 | 0.201 | 0.229 | 0.234 | 0.199 | 0.211 | 0.403 | 0.465 | 0.439 | 0.413 | 0.316 | 0.945 | 1.07 | 1.04 | 0.98 | 0.727 |
| NCI-H2023 | 0.636 | 0.482 | 0.606 | 0.776 | 0.608 | 0.288 | 0.386 | 0.251 | 0.275 | 0.136 | 0.406 | 0.379 | 0.438 | 0.481 | 0.341 | 1.02 | 0.983 | 0.993 | 1 | 0.964 |
| NCI-H3122 | 1.06 | 1.01 | 1.03 | 1.08 | 0.989 | 0.46 | 0.419 | 0.433 | 0.386 | 0.344 | 0.382 | 0.361 | 0.389 | 0.356 | 0.338 | 0.982 | 0.987 | 1.06 | 1.05 | 1.06 |
| ChaGo-K-1 |  |  |  |  |  |  | 0.209 | 0.223 | 0.251 | 0.255 | 0.467 | 0.542 | 0.508 | 0.558 | 0.41 | 1.34 | 1.48 | 1.04 | 1.06 | 0.92 |
| NCI-H2347 | 1.09 | 0.91 | 0.963 | 1.05 | 0.98 | 0.758 | 0.533 | 0.574 | 0.599 | 0.412 | 0.446 | 0.299 | 0.308 | 0.512 | 0.371 | 0.88 | 0.797 | 0.751 | 0.937 | 0.783 |
| NCI-H460 | 0.928 | 0.648 | 0.901 | 0.757 | 0.595 | 0.396 | 0.282 | 0.302 | 0.204 | 0.0413 | 0.528 | 0.501 | 0.554 | 0.526 | 0.486 | 1.23 | 1.12 | 1.15 | 1.06 | 0.965 |
| HCC-827 | 0.965 | 0.537 | 0.257 | 0.203 | 0.205 | 0.366 | 0.425 | 0.424 | 0.438 | 0.394 | 0.376 | 0.18 | 0.161 | 0.143 | 0.14 | 1.1 | 0.66 | 0.271 | 0.184 | 0.167 |
| HOP-62 | 1.06 | 0.992 | 0.842 | 0.853 | 0.596 | 0.291 | 0.42 | 0.398 | 0.366 | 0.372 | 0.628 | 0.656 | 0.758 | 0.683 | 0.545 | 1.17 | 0.954 | 1.02 | 1.02 | 1.01 |
| NCI-H1792 | 0.558 | 0.407 | 0.54 | 0.547 | 0.454 |  |  |  |  |  | 0.323 | 0.332 |  | 0.145 | 0.277 | 0.586 | 0.636 | 0.56 | 0.625 | 0.582 |
| HCC-15 | 0.786 | 0.853 | 0.857 | 0.954 | 0.743 | 0.343 | 0.411 | 0.316 | 0.315 | 0.273 | 0.434 | 0.432 | 0.521 | 0.556 | 0.376 | 0.689 | 0.69 | 0.762 | 0.678 | 0.566 |
| NCI-H1755 | 1.04 | 0.988 | 0.994 | 0.986 | 0.968 | 0.448 | 0.544 | 0.563 | 0.598 | 0.584 | 0.587 | 0.629 | 0.319 | 0.645 | 0.534 | 0.984 | 1.01 | 0.995 | 1.02 | 0.951 |
| NCI-H23 | 0.667 | 0.51 | 0.606 | 0.661 | 0.435 | 0.634 | 0.304 | 0.35 | 0.301 | 0.343 | 0.793 | 0.743 | 0.81 | 0.851 | 0.789 | 0.801 | 0.796 | 0.817 | 0.849 | 0.791 |
| BEN | 1.04 | 0.719 | 1.12 | 0.824 | 0.628 | 0.261 | 0.49 | 0.457 | 0.638 | 0.435 | 0.29 | 0.259 | 0.239 | 0.256 | 0.209 | 0.0901 | 0.0957 | 0.427 | 0.137 | 0.0346 |
| NCI-H1651 | 1.14 | 0.866 | 0.996 | 1.04 | 0.912 | 0.618 | 0.793 | 0.518 | 0.661 | 0.457 | 0.34 | 0.352 | 0.371 | 0.415 | 0.432 | 1.13 | 0.938 | 1.22 | 1.04 | 0.887 |
| NCI-H2126 | 0.742 | 0.646 | 0.733 | 0.648 | 0.586 | 0.709 | 0.837 | 0.823 | 0.934 | 0.681 | 0.556 | 0.532 | 0.517 | 0.52 | 0.403 | 0.889 | 0.86 | 0.852 | 0.815 | 0.649 |
